From patent publication US20260124203A1, “CHEMICAL SYNTHETIC LETHALITY FOR ANTIMICROBIAL THERAPY” (priority 2024, published 2026) come the findings set out here.

Molecules are shown by their SMILES.

In this assay the target is T1, FolE2 (Burkholderia thailandensis, UniProt Q2T7N4).
T1 construct: fused on or other part: N-terminal 6xHis tag from pET-28b(+) (NdeI/SacI)
The assay is described as follows: biochemical. Particulars: read-out: apparent Ki. Details: species or system B. thailandensis.

As for `C=C1CC[C@H]2C(=C)CC[C@H]3C(=C)C(=O)O[C@@H]3[C@@H]12` [DHL, dehydrocostus lactone], the Ki is 87 ± 21 µM.
